From ChEMBL document CHEMBL5728923, “Cyclin dependent kinase inhibitors” (2022)

Biological target: Cyclin-dependent kinase 4/cyclin D1 (Homo sapiens, UniProt P11802+P24385)
Experiment: Mobility Shift Assay : The purpose CDK4/Cyclin D1 assay is to evaluate the inhibition (% inhibition, Kiapp and Ki values) in the presence of small molecule inhibitors by using a fluorescence based microfluidic mobility shift assay. CDK4/Cyclin D1 catalyzes the production of ADP from ATP that accompanies the phosphoryl transfer to the substrate peptide 5-FAM-Dyrktide (5-FAM-[…]) (SEQ ID NO:1). The mobility shift assay electrophoretically separates the fluorescently labeled peptides (substrate and phosphorylated product) following the kinase reaction. Both substrate and product are measured and the ratio of these values is used to generate % Conversion of substrate to product by the LabChip EZ Reader. […] The reaction was stopped after 195 minutes by the addition of 50 μL of 30 mM EDTA. Ki determinations were made from a plot of the fractional velocity as a function of inhibitor concentration fit to the Morrison equation with the enzyme concentration as a variable.
Format: protein-complex assay

Chain of Cyclin-dependent kinase 4/cyclin D1 (P11802 whole entry): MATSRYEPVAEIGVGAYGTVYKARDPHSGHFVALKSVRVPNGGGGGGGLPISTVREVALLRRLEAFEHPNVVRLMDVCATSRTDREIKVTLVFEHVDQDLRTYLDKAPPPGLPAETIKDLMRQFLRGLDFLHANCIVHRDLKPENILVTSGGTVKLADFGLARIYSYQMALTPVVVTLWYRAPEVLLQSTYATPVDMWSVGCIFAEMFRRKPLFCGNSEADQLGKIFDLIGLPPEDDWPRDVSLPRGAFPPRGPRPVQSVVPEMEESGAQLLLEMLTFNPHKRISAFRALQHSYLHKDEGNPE
Chain of Cyclin-dependent kinase 4/cyclin D1 (P24385 whole entry): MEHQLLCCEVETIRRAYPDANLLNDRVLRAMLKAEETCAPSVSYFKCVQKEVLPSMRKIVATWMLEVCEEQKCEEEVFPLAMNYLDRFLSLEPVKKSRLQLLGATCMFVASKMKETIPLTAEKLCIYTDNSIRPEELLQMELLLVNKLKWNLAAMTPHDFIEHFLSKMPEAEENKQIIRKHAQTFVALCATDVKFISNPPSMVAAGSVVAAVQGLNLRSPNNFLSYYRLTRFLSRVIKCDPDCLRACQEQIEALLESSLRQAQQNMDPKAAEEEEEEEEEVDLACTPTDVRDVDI

Question: Which Ki does the source give for `CC(C)n1c([C@H](C)O)nc2c(F)cc(-c3cc(N[C@@H]4CCN(S(C)(=O)=O)C[C@H]4O)ncc3Cl)cc21` (single isomer, unassigned) here?
Answer: 0.1 nM
